According to patent US20190029987A1, “DIMETHYL FUMARATE (DMF) FOR PREVENTION OR TREATMENT OF GOUT, ACNE, DIABETES, VITILIGO AND/OR PYODERMA GANGRENOSUM” (UNIVERSITAT ZURICH, priority 2016, published 2019):

Tests used:
[1] = tested on: Nrf2; experiment: Nrf2 stabilisation and nuclear accumulation in human primary keratinocytes (Western blot); format: cell-based; conditions: HPKs, 10 μM, FIG. 6E,F; for expression of the other Nrf2 complex proteins Keap1, Cul3, and Rbx1: 1 h; for stabilisation and nuclear accumulation of Nrf2 protein: harvested after 1 h
Protocol: Human primary keratinocytes (HPKs) constitutively express pro-IL-1β and inflammasome proteins.
FIG. 6: Bone marrow (BM) cells were isolated from Nrf2-deficient mice and wt litterfnates and differentiated into dendritic cells (DCs). (A, B) After priming with upLPS overnight, BMDCs were treated with the NLRP3 inflammasome activators nigericin (20 μM), zymosan (20 μg/ml), MSU (150 μg/ml), ATP (5 mM) or transfected with poly(dA:dT) (1 μg/ml) for activation of the AIM2 inflammasome. After 6 h, supernatants were analysed for secretion of IL-1β by (A) ELISA or (B) Western blot. Mock-treated but primed BMDCs were analysed for expression of inflammasome proteins and pro-IL-1β at the (C) mRNA level by qRT-PCR or at the (D) protein level by Western blot. (B, D) Duplicates from two individual mice per genotype are shown (biological replicates). (E-G) HPKs were treated with the Nrf2 activators SFN (10 μM), tBHQ (10 μM), DMF (50 μM) and 15d-PGJ2 (10 μM). After 1 h, the cells were harvested and analysed for expression of the indicated proteins using total cell lysates (E) or cytoplasmic and nuclear lysates (F). Western blots for the nuclear protein lamin NC and the cytoplasmic protein α-tubulin served as controls. Specific bands are marked with an asterisk. (G) Total RNA was isolated after 8 h and qRT-PCR was performed for quantification of expression of the Nrf2 target genes glutamate-cysteine ligase, catalytic subunit (GCLC), glutamate-cysteine ligase, modifier subunit (GCLM), and NAD(P)H dehydrogenase, quinone 1 (N001). (A-G) Representative experiments performed at least three times are shown. […] Mann-Whitney test was performed. […] Mann-Whitney test was performed. *P≤0.05

[2] = tested on: NLRP3 inflammasome; experiment: UVB irradiation-induced inflammasome activation in HPKs (IL-1β ELISA, Western blot); format: cell-based, human; conditions: for relative efficiency/potency of inflammasome inhibition between compounds: UVB, same concentrations; for relative efficiency/potency of inflammasome inhibition between compounds / inflammasome activation (processed caspase-1, mature IL-1β and -18 in the supernatant): FIG. 2A, 8A-C; for inflammasome activation (processed caspase-1, mature IL-1β and -18 in the supernatant): different doses, UVB 30 min later, harvested after 5 h
From the text: To determine the effects of Nrf2 activating compounds on inflammasome activation, the inventors treated keratinocytes with different doses of SFN, tBHQ, DMF or 15d-PGJ2 and irradiated the cells with UVB.
SFN, DMF, 15d-PGJ2, tBHQ, zymosan, ATP, poly(dA:dT), cycloheximide, puromycin, and doxycycline were purchased from Sigma (Munich, Germany), nigericin from Enzo Life Sciences (New York, US-NY), MG132 from Calbiochem (Darmstadt, Germany), and blasticidin from Invivogen (Toulouse, France). Release of IL-1p was determined by ELISA according the instructions of the manufacturer (R&D Systems, Minneapolis, US-MN). MSU crystals were prepared by crystallisation of a supersaturated solution of uric acid under mildly basic conditions. Briefly, uric acid was added to a solution of NaOH, the solution was boiled until the uric acid was dissolved and passed through a filter. NaCl was added and crystallisation was performed at 4° C. Crystals were filtered, then dried using a speedvac, weighted and autoclaved.
(A) HPKs were treated with the indicated concentrations of the Nrf2 activating compound tBHQ irradiated with UVB 30 min later and harvested after 5 h. ELISA measurements were performed for quantification of IL-1β secretion and Western blots for analysis of expression and activation of the indicated proteins. Specific bands are marked with an asterisk. (B) THP-1 cells were differentiated with PMA (27 nM) for 3 d, primed with upLPS (100 ng/ml) overnight, and 1 h before inflammasome activation (5 μM nigericin, 150 μg/ml MSU) treated with SFN (10 μM), 15-PGJ2 (10 μM) or DMF (50 μM) (15-PG: 15-PGJ2). Cells and supernatants were harvested after 5 h and analysed for inflammasome activation by ELISA measurement of IL-1p and Western blots as indicated. (C) Freshly isolated PBMCs from human blood were primed overnight with upLPS (100 ng/ml) and treated with SFN (10 μM), tBHQ (10 μM), DMF (50 μM) or 15-PGJ2 (10 μM) 1 h before inflammasome activation by nigericin (5 μM). ELISA measurement for secretion of IL-1β as readout for inflammasome activation was performed after 5 h. (D) HPKs or (E) differentiated and primed THP-1 cells were pretreated with cycloheximide (CHX, 30 μg/ml) to block protein synthesis for 1 h before SFN (10 μM) was added to the cells and after an additional hour the inflammasome was activated by (D) irradiation with UVB or (E) treatment with nigericin (5 μM). Cells and supernatants were harvested after (D) 6 h or (E) 3.5 h and analysed for inflammasome activation by Western blot as indicated. (A-E) Representative experiments performed at least three times are shown. Statistics: (A-C) Error bars represent the mean±SD of a representative experiment performed in triplicates. One-way ANOVA was performed. **P≤0.01; ***P≤0.001.
(§1) FIG. 8: (A-C) HPKs were treated with the Nrf2 activating compounds (A) SFN, (B) DMF, and (C) 15d-PGJ2, irradiated with UVB 30 min later and harvested after 5 h. Analogous experiment as described in FIG. 2A for tBHQ. (D) THP-1 cells were differentiated with TPA for 3 d and primed with LPS overnight. Then, cells were treated with the solvent DMSO, SFN (10 μM) or 15-PGJ2 (10 μM). After 30 min the inflammasome was activated by nigericin treatment and cells and supernatants were harvested after 2.5 h. Western blots showing prolL-1β and mature IL-1p in the lysate and supernatant. 20% lysate and supernatant of a 12 well was used, respectively, in order to allow a comparison. IL-1β was quantified in the supernatant by ELISA and cytotoxicity by LDH release.

[3] = tested on: THP-1 cells; experiment: Pyroptosis in inflammasome activated THP-1 cells (LDH release); format: cell-based, human; conditions: THP-1, 10 μM 30 min before nigericin, 2.5 h, FIG. 8D
Protocol: To determine the effects of Nrf2 activating compounds on inflammasome activation, the inventors treated keratinocytes with different doses of SFN, tBHQ, DMF or 15d-PGJ2 and irradiated the cells with UVB. […] As the Nrf2 activators were added to the cells only 15 to 30 min prior to inflammasome activation, it is unlikely that Nrf2 target genes are involved in inflammasome inhibition.
Supernatants were harvested and after centrifugation (400×g) used for analysis. Cells were lysed in culture medium with 2% Triton X-100 for 10 min, LDH activity was determined according to the manufacturer (Cytotox 96 nonradioactive cytotoxicity assay, Promega, Madison, US-WC).
as §1, with “20% lysate and supernatant of a 12 well was used, respectively, in order to allow a comparison.” left out

[4] = tested on: Nrf2 target genes Gstp1, Nqo1 and Srxn1; experiment: Nrf2 target gene expression in liver of treated mice (qRT-PCR); format: in vivo, mouse; conditions: oral gavage 25 mg/kg, FIG. 3C
Protocol: Monosodium urate (MSU) crystal-induced peritonitis is a mouse model of inflammation and gout, which is dependent on IL-1, IL-1R1, MyD88 and the NLRP3 inflammasome. […] The inventors chose a different way of administration and supplied mice with SFN or DMF by oral gavage to determine a potential anti-inflammatory activity of the Nrf2 activators in vivo (FIG. 3). […] The inventors analysed the cellular infiltrate in the peritoneum 6 h post injection of MSU crystals.
qRT-PCR was performed with the LightCycler 480 SYBR Green Master or the FastStart Universal SYBR Green Master (both Roche, Rotkreuz, Switzerland) using total cellular RNA. Specific primer pairs (Supplementary Table 2) were designed to generate an approximately 150 bp fragment flanking an intron-exon border of the corresponding gene. […]
Mice treated by gavage with (A, B, C) SFN (25 mg/kg) in PBS or (D, E, F) DMF (20 mg/kg) in H2O containing 0.08% methocel and 10% DMSO, vehicle-treated mice served as control. […] Peritonitis was induced by peritoneal injection of 2 mg MSU crystals, (B, E) After 6 h the number of neutrophils of the peritoneal lavage was determined by flow cytornetry. (C, F) At the same time, the liver was isolated and analysed for the expression of the Nrf2 target genes Gstp1, Nqo1 and Srxn1 by qRT-PCR. […]

[5] = target: NLRP3 inflammasome (Mus musculus, UniProt Q8R4B8); conditions: BMDCs from wt and Nrf2 knockout mice, 10 μM 1 h before 5 μM nigericin, 4.5 h, FIG. 5D,E
Protocol: To address this possibility, the inventors treated BMDCs from wild-type and Nrf2 knockout mice with SFN or vehicle (FIG. 5 D, E).
(D, E) DCs were differentiated from the bone marrow of wt and Nrf2 knockout mice (n=4), primed overnight with upLPS and treated with the solvent DMSO (ctrl) or SFN (10 μM). After 1 h, BMDCs were treated with 5 μM nigericin and harvested 4.5 h later. (D) Western blots for expression and activation of the indicated proteins and (E) ELISA for quantification of secretion of IL-1p. […] IL-1β secretion was determined by ELISA. […] (A-E) Representative experiments performed at least three times are shown. (E) Error bars represent the mean±SD of a representative experiment performed in triplicates.

[6] = tested on: ASC; conditions: THP1, 10 μM, nigericin 5 μM for 2.5 h, FIG. 5F
Protocol: In order to analyse, at which level SFN blocks inflammasome activation, the inventors determined the formation of ASC specks in SFN-treated and inflammasome activated THP1 cells (FIG. 5F). Formation of ASC specks is an upstream event of inflammasome activation.
ASC specks were analysed as described (Nara et al., Nat Immunol 2013. 14: 1247-1255),
(F) THP1 cells (3 d differentiated with TPA, overnight primed with LPS) were stimulated with SFN (10 μM) or the solvent DMSO and mock-treated or with nigericin (5 μM) for 2.5 h. Lysates were harvested in Triton buffer and analysed for soluble and insoluble (indicating speck formation) ASC or in DSS-containing buffer for detection of ASC monomers, dimers and oligomers by Western blotting. IL-1β secretion was determined by ELISA.

NLRP3 inflammasome (Mus musculus, UniProt Q8R4B8), sequence (Q8R4B8 whole entry): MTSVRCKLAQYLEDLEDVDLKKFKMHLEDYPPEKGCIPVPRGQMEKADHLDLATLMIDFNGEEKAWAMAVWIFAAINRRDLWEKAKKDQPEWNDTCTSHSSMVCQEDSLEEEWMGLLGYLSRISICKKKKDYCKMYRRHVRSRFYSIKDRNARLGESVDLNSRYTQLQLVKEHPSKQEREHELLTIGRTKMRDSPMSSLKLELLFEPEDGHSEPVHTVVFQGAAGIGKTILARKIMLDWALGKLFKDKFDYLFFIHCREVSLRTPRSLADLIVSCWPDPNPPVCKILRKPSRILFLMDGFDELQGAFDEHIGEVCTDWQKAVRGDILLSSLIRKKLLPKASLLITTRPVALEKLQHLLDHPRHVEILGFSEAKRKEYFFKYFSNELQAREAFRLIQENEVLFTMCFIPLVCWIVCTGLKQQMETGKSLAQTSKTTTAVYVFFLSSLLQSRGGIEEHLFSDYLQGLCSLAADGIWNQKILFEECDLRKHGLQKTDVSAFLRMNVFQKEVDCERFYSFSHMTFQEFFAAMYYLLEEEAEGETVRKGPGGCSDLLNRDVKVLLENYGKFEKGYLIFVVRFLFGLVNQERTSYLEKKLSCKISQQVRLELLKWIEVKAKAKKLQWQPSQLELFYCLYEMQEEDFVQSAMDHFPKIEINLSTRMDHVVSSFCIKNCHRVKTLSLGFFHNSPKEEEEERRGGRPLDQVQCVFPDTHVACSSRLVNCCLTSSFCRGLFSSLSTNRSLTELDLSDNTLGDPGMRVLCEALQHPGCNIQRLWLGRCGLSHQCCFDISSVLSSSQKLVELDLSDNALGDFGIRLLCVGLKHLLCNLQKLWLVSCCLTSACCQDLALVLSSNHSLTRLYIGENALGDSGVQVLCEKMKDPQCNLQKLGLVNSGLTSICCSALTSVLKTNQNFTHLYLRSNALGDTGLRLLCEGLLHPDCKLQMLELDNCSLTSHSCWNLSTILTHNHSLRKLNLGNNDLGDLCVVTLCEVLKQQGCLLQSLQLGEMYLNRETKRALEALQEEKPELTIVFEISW

## CCCCCC=CC=C1C(=O)C=CC1CC=CCCCC(=O)O [15d-PGJ2, 15-deoxy-D-prostaglandin J2]
[1]
  expression of the other Nrf2 complex proteins Keap1, Cul3, and Rbx1: not affected
  stabilisation and nuclear accumulation of Nrf2 protein: fast and robust stabilisation and nuclear accumulation of Nrf2 protein
[2]
  relative efficiency/potency of inflammasome inhibition between compounds: much more efficient than tBHQ and DMF
  inflammasome activation (processed caspase-1, mature IL-1β and -18 in the supernatant): inhibited inflammasome activation in a dose-dependent manner
[3]
  pyroptosis (release of lactate dehydrogenase): strongly inhibited pyroptosis

## C[S+]([O-])CCCCN=C=S (centres unmarked) [SFN, sulforaphane]
[1]
  expression of the other Nrf2 complex proteins Keap1, Cul3, and Rbx1: not affected
  stabilisation and nuclear accumulation of Nrf2 protein: fast and robust stabilisation and nuclear accumulation of Nrf2 protein
[2]; CHX 30 μg/ml 1 h before SFN 10 μM, UVB 1 h later, 6 h, FIG. 2D
  inflammasome inhibition by SFN with protein synthesis blocked by cycloheximide: did not prevent inflammasome inhibition
[2]
  relative efficiency/potency of inflammasome inhibition between compounds: much more efficient than tBHQ and DMF
  inflammasome activation (processed caspase-1, mature IL-1β and -18 in the supernatant): inhibited inflammasome activation in a dose-dependent manner
[3]
  pyroptosis (release of lactate dehydrogenase): strongly inhibited pyroptosis
[4]
  expression of Nrf2 target genes in the liver: increased mRNA expression
[5]
  secretion of IL-1β: completely abolished secretion of the cytokine independently of Nrf2 expression
[6]
  ASC speck formation / oligomerization: prevented oligomerization of the adaptor protein
